Measured values: patent publication US11518758B2, “Heteroarylaminopyrimidine amide autophagy inhibitors and methods of use thereof” (Deciphera Pharmaceuticals, LLC, priority 2019, dated 2022)
pIC50: −log10 of the molar value.

target: T1, LRRK2 kinase (Homo sapiens, UniProt Q5S007); test: Biochemical assay for LRRK2 (coupled pyruvate kinase/lactate dehydrogenase assay); details: 26.4 nM LRRK2 (residues 970-2528), 0.1 mM peptide substrate, 1 mM ATP
T1 construct: purchased Thermo Fisher
T1 sequence (Q5S007 with tags, fused parts or gaps): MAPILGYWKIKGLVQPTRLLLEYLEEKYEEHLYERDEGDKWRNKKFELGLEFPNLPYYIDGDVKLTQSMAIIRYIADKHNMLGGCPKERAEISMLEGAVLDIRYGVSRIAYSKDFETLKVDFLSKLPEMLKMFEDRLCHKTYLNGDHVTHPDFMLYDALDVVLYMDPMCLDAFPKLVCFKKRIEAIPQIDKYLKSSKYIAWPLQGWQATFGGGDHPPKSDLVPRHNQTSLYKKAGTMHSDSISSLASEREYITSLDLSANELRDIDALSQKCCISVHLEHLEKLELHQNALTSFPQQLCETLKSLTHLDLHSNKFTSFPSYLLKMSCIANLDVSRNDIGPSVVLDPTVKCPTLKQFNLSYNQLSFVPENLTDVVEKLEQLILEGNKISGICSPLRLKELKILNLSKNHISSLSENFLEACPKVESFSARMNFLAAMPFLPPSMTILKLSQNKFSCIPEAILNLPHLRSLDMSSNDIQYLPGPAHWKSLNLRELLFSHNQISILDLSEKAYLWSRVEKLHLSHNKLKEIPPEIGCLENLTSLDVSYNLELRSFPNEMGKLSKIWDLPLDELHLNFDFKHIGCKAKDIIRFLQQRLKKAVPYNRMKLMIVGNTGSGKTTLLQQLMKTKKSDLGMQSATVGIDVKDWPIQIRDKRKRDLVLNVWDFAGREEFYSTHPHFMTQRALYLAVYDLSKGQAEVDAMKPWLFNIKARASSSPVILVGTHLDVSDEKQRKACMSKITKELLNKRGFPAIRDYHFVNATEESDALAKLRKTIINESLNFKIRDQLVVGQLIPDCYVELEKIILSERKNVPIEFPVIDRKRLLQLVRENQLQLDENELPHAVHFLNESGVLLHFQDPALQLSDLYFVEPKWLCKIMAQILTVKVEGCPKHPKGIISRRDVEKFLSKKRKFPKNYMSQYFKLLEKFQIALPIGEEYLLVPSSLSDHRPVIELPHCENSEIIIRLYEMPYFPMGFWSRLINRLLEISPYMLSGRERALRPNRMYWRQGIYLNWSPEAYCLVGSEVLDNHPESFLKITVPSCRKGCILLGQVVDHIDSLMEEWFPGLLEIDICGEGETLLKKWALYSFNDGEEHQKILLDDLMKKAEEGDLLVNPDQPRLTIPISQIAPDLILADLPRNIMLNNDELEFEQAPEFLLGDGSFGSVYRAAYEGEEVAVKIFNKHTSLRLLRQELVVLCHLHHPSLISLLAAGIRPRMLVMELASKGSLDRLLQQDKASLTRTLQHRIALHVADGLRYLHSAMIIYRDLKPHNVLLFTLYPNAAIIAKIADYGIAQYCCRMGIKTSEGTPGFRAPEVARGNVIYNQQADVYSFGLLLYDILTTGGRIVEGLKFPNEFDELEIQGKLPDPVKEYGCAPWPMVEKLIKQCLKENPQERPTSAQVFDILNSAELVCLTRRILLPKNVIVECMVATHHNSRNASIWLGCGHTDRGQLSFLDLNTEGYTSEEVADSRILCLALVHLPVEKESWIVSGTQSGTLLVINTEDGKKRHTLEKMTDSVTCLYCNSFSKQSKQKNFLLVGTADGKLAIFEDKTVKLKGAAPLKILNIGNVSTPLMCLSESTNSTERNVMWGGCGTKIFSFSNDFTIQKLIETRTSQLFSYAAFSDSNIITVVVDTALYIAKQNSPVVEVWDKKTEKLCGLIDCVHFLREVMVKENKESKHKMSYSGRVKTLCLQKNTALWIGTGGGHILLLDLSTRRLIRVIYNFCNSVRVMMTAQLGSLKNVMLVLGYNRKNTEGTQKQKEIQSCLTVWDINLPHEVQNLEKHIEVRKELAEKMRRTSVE

pIC50	SMILES
6.22 to 6.52	CCN1CC[C@H](n2cc(Nc3ncc(Br)c(NCCCN4CCCCC4=O)n3)c(C)n2)C1 [Example 64]
6.52 to 7.00	Cc1nn(C2CCN(C)CC2)cc1Nc1ncc(C(F)(F)F)c(NCCCN2CCCCC2=O)n1 [Example 8]

target: T2, ULK1 kinase (Homo sapiens, UniProt O75385, E37A/K38A); test: Biochemical assay for ULK1.3 (coupled pyruvate kinase/lactate dehydrogenase assay); details: 0.1 nM ULK1 (from Beryllium), peptide substrate, 1 mM ATP
T2 construct: (residues 1-283; ID NO: 2); purchased Beryllium
T2 sequence (O75385 1-283 E37A/K38A): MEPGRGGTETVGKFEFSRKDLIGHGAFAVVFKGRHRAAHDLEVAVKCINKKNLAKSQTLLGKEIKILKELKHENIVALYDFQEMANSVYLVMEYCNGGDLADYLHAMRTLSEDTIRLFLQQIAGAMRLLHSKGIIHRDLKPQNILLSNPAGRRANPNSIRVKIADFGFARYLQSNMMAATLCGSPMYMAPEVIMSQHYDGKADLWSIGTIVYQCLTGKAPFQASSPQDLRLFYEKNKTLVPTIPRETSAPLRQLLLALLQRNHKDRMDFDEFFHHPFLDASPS
Procedure: Example 175. Biochemical Assay for ULK1.3
Activity of ULK1 kinase was determined spectroscopically using a coupled pyruvate kinase/lactate dehydrogenase assay that continuously monitors the ATP hydrolysis-dependent oxidation of NADH (e.g., Schindler et al. Science (2000) 289: 1938-1942). Assays were conducted in 384-well plates (100 uL final volume) using 0.1 nM ULK1 (from Beryllium), 0.075 mM peptide substrate (YANWLAASIYLDGKKK (SEQ ID NO: 5)), 1.5 units pyruvate kinase, 2.1 units lactate dehydrogenase, 1 mM phosphoenol pyruvate, 0.28 mM NADH and 1 mM ATP in assay buffer (100 mM Tris, pH 7.5, 15 mM MgCl2, 0.5 mM DTT, 0.004% (w/v) BSA, and 0.004% Triton X-100). Inhibition of ULK1 was measured by adding serial diluted test compound (final assay concentration of 1% DMSO). A decrease in absorption at 340 nm was monitored continuously for 6 hours at 30° C. on a multi-mode microplate reader (BioTek). The reaction rate was calculated using the 2-3 h time frame. The reaction rate at each concentration of compound was converted to percent inhibition using controls (i.e. reaction with no test compound and reaction with a known inhibitor) and IC50 values were calculated using software routines in Prism (GraphPad software).

pIC50	SMILES
7.60 to 9.00	Cc1nn(C2CCN(C)CC2)cc1Nc1ncc(C(F)(F)F)c(NCCCN2CCCOCC2=O)n1 [Example 102]
7.60 to 9.00	Cc1nn(C2CCN(C)CC2)cc1Nc1ncc(C(F)(F)F)c(NCCCN2CCOCCC2=O)n1 [Example 127]
7.00 to 7.60	Cc1nn([C@H]2CCN(C)C2)cc1Nc1ncc(Br)c(NCCCN2CCCCC2=O)n1 [Example 61]
7.00 to 7.60	Cc1nn(C2CCN(C(C)C)CC2)cc1Nc1ncc(C(F)(F)F)c(NCCCN2CCCOC2=O)n1 [Example 68]
